In patent US8399696B2, “Functionalized biodegradable triclosan monomers and oligomers for controlled release” (Bezwada Biomedical, LLC, priority 2007, dated 2013):

Experiment: Hydrolysis of 500 mg (0.5 grams) of compound in 50 mL buffer (pH 9 or pH 7) at 50 or 100° C.
Type: physicochemical
Method: Into a clean and dry 1 liter, 3 necked round bottom flask equipped with a nitrogen inlet was added 15 grams of triclosan in 150 ml of ethyl acetate. 15 ml of pyridine was added to the reaction mixture and the reaction mixture was left for stifling at room temperature for 10 minutes. To this stirring solution was added dropwise 24 grams of stearic acid glycolic acid chloride 27 dissolved in 30 ml of ethyl acetate and the reaction was left for stirring at room temperature for twenty four hours following which the […] salt was filtered off and the ethyl acetate layer was washed with 5% solution of sodium bicarbonate followed by drying using sodium sulphate. Ethyl acetate was distilled off using high vacuum distillation to yield 22 grams of crude 28. […]

[1] = 0.5 grams in 50 mL pH 9 buffer, 50° C.
[2] = 500 mg in 50 mL pH 9 buffer, 100° C.

Row | time to hydrolysis (Hydrolyzed in) [1] | extent of hydrolysis in 53 hours (0.5 grams in 50 mL pH 7 buffer, 100° C., 53 hours) | Compound | extent of hydrolysis by TLC in 48 hours (0.5 grams in 50 mL pH 7 buffer, 50° C.) | extent of hydrolysis by TLC in 48 hours (0.5 grams in 50 mL pH 7 buffer, 100° C.) | time to hydrolysis (Hydrolyzed in) [2]
1 | Hydrolyzed in 150 hours | – | O=C(COc1ccc(OCC(=O)Oc2cc(Cl)ccc2Oc2ccc(Cl)cc2Cl)cc1)Oc1cc(Cl)ccc1Oc1ccc(Cl)cc1Cl [Compound 19, {4-[5-Chloro-2-(2,4-dichloro-phenoxy)-phenoxycarbonylmethoxy]-phenoxy}-acetic acid 5-chloro-2-(2,4-dichloro-phenoxy)-phenyl ester] | By TLC it hydrolyzed around 5% in 48 hours | By TLC it hydrolyzed around 15% in 48 hours | –
2 | Hydrolyzed in 150 hours | – | O=C(COCCOc1ccc(OCCOCC(=O)Oc2cc(Cl)ccc2Oc2ccc(Cl)cc2Cl)cc1)Oc1cc(Cl)ccc1Oc1ccc(Cl)cc1Cl [Example 15, [2-(4-{2-[5-Chloro-2-(2,4-dichloro-phenoxy)-phenoxycarbonylmethoxy]-ethoxy}phenoxy)-ethoxy]-acetic acid 5-chloro-2-(2,4-dichloro-phenoxy)-phenyl ester] | – | – | –
3 | Hydrolyzed in 102 hours | Hydrolyzed 50% only in 53 hours | O=C(COCC(=O)Oc1cc(Cl)ccc1Oc1ccc(Cl)cc1Cl)Oc1cc(Cl)ccc1Oc1ccc(Cl)cc1Cl [Example 20] | – | – | Hydrolyzed in 25 hours
4 | – | – | CCCCCCCCCCCCCCCCCC(=O)OCC(=O)Oc1cc(Cl)ccc1Oc1ccc(Cl)cc1Cl [Example 28, Triclosan Glycolic Acid Stearate] | – | – | 27 h
